Experimental data from patent publication US11787812B2, “Substituted pyrazolo[4,3-d]pyrimidines and imidazo[5,1 -f][1,2,4]triazines as androgen receptor and phosphodiesterase dual inhibitors” (ILDONG PHARMACEUTICAL CO., LTD., priority 2020, dated 2023).
Read-outs that look alike come from different tables or passages of the source.

Tests used:
human PDE-5A1 = human PDE-5A1 (Homo sapiens (Human), UniProt O76074); test: Human PDE-5A1 inhibition assay (fluorescence polarization, FAM-cGMP); format: biochemical; settings: human PDE5A1, 100 nM FAM-cGMP, 60 minutes room temperature
From the text: This example illustrates the in vitro inhibition of human PDE-5A1 by exemplary compounds of this disclosure (e.g., as described herein).
Sildenafil citrate (Catalog no. LKT-S3313, Axxora, San Diego, CA), Vardenafil hydrochloride trihydrate (Catalog no. SML2103, Sigma-Aldrich, St. Louis, MO), PDE Assay Buffer (Catalog no. 60393, BPS bioscience, San Diego, CA), PDE Binding Agent (Catalog no. 60390, BPS bioscience, San Diego, CA) and PDE Binding Agent Diluent (cGMP, Catalog no. 60392, BPS bioscience, San Diego, CA) were used for assays. Test compounds were supplied by Ildong Pharmaceuticals Co., Ltd.
The serial dilution of the compounds was first performed in 100% DMSO with the highest concentration at 1 mM and 0.1 mM. Each intermediate compound dilution (in 100% DMSO) will then get directly diluted 10× fold into assay buffer for 10% DMSO and 5 μL of the dilution was added to a 50 μL reaction so that the final concentration of DMSO is 1% in all reactions.
The enzymatic reactions were conducted at room temperature for 60 minutes in a 50 μL mixture containing PDE assay buffer, 100 nM FAM-cGMP, a PDE enzyme (Table 2) and the test compounds.
After enzymatic reaction, 100 μL of a binding solution (1:100 dilution of the binding agent with the binding agent diluent) was added to each reaction and the reaction was performed at room temperature for 60 minutes.
Fluorescence intensity was measured at excitation of 485 nm and an emission of 528 nm using a Tecan Infinite M1000 microplate reader.
PDE activity assays were performed in duplicate at each concentration. Fluorescence intensity is converted to fluorescence polarization using the Tecan Magellan6 software. The fluorescence polarization (FPt) in absence of the compound in each data set was defined as 100% activity. In the absence of PDE and the compound, the value fluorescent polarization (FPb) in each data set was defined as 0% activity. The percent activity in the presence of compound was calculated according to Equation 1:
[formula] where FP=the fluorescence polarization in the presence of the compound.
The values of % activity versus a series of compound concentrations were then plotted using non-linear regression analysis of Sigmoidal dose-response curve generated with Equation 2:
[formula] where Y=percent activity, B=minimum percent activity, T=maximum percent activity, X=logarithm of compound, and Hill Slope=slope factor or Hill coefficient. The IC50 value was determined by the concentration causing a half-maximal percent activity. Results

androgen receptor (AR) = androgen receptor (AR) (Homo sapiens (Human), UniProt P10275); test: Androgen receptor (AR) reporter assay, antagonist screen activated by R1881; format: cell-based; settings: AR-UAS-bla GripTite 293 cells, antagonist mode, R1881 at EC80
Sequence of androgen receptor (AR) (P10275 other isoform, or with tags, fused parts or gaps): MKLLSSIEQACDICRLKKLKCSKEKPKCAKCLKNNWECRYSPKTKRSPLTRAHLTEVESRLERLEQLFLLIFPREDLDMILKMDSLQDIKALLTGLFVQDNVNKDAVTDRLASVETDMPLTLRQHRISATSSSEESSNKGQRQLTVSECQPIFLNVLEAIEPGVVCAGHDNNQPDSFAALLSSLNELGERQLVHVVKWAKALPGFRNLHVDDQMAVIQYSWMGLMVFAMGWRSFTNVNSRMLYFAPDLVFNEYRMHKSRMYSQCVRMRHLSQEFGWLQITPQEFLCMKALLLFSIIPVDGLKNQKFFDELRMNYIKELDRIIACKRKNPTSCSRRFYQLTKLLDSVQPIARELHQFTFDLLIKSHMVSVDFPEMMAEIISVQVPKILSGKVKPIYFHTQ
Protocol: The protocols and results of this Example were carried out and obtained by Thermofisher Scientific.
Test compounds were received at 1000× (or greater) of the desired starting concentration in 100% DMSO. If compounds were supplied at greater that 1000× concentration, an initial dilution is made in 100% DMSO to bring the compounds to 1000× concentration. The 1000× test compounds were serially diluted (10 point ½-log increments) in 100% DMSO.
The Substrate Loading Solution consists of three Life Technologies reagents: Solution A (10 mM LiveBLAzer™-FRET B/G Substrate), Solution B and Solution C.
Androgen Receptor (AR)—Antagonist Screen, Activated by R1881
AR-UAS-bla GripTite™ 293 cells were thawed and resuspended in Assay Media (DMEM phenol red free, 2% CD-treated FBS, 0.1 mM NEAA, 1 mM Sodium Pyruvate, 100 U/mL/100 μg/mL Pen/Strep) to a concentration of 312,500 cells/mL. 4 μL of a 10× serial dilution of Cyproterone Acetate (control antagonist starting concentration, 3,160 nM) or compounds are added to appropriate wells of a Poly-D-Lysine assay plate. 32 μL of cell suspension was added to the wells and pre-incubated at 37° C./5% CO2 in a humidified incubator with compounds and control antagonist titration for 30 minutes. 4 μL of 10× control agonist R1881 at the pre-determined EC80 concentration was added to wells containing the control antagonist or compounds. The plate was incubated for 16-24 hours at 37° C./5% CO2 in a humidified incubator. 8 μL of 1 μM Substrate Loading Solution is added to each well and the plate was incubated for 2 hours at room temperature. The plate was read on a fluorescence plate reader (Tecan Safire^2).

Human androgen receptors = Human androgen receptors (Homo sapiens (Human), UniProt P10275, T878A); test: Androgen receptor (AR) radioligand binding assay; settings: read-out: AR IC50
Sequence of Human androgen receptors (P10275 whole entry T878A): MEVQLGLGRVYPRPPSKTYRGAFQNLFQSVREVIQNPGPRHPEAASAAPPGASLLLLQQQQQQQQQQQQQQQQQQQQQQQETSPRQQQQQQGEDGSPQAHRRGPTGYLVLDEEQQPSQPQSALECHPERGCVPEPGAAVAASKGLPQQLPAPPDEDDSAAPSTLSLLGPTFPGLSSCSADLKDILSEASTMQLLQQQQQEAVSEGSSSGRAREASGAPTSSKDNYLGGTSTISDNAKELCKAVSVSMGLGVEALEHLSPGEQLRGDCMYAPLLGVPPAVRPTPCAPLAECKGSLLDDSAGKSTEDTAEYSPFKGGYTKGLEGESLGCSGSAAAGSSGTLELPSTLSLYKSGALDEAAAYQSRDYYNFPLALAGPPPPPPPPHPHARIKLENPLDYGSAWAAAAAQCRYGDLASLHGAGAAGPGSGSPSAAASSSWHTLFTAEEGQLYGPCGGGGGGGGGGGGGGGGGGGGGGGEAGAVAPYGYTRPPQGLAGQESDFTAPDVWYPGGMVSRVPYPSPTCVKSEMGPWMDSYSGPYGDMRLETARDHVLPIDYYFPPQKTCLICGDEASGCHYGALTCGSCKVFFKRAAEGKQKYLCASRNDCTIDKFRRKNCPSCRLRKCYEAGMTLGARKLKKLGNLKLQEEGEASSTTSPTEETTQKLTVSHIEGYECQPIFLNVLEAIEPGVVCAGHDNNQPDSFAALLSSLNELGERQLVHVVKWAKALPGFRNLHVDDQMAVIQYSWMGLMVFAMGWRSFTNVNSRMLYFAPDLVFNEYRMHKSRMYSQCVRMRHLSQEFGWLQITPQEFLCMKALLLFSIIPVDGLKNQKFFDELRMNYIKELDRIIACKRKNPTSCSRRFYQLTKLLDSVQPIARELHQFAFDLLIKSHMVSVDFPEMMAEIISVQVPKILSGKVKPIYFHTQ
Protocol: Methods employed in this study have been adapted from the following literature procedure.
Human androgen receptors obtained from human LNCaP cells are used in modified HEPES buffer pH 7.4. […] Non-specific binding is estimated in the presence of 1 μM testosterone. […] (See, e.g., Traish, A. M et al., Binding of 7α, 17α-dimethyl-19-nortestosterone (Mibolerone) to androgen and progesterone receptors in human and animal tissues. Endocrinology. 118(4): 1327-1333, 1986).
Compounds are screened at 10 μM.
Where presented, IC50 values were determined by a non-linear, least squares regression analysis using MathIQ™ (ID Business Solutions Ltd., UK).

| Structure (SMILES) | IC50 (human PDE-5A1) | other results |
| --- | --- | --- |
| CCCc1nn(C)c2c(=O)[nH]c(-c3cc(S(=O)(=O)Nc4ccc(C#N)c(C(F)(F)F)c4)ccc3OCC)nc12 [Compound 1, N-(4-cyano-3-(trifluoromethyl)phenyl)-4-ethoxy-3-(1-methyl-7-oxo-3-propyl-6,7-dihydro-1H-pyrazolo[4,3-d]pyrimidin-5-yl)benzenesulfonamide] | ≤ 10 nM | – |
| CCCc1nn(C)c2c(=O)[nH]c(-c3cc(SC[C@](C)(O)C(=O)Nc4ccc(C#N)c(C(F)(F)F)c4)ccc3OCC)nc12 [Compound 2, (R)-N-(4-cyano-3-(trifluoromethyl)phenyl)-3-((4-ethoxy-3-(1-methyl-7-oxo-3-propyl-6,7-dihydro-1H-pyrazolo[4,3-d]pyrimidin-5-yl)phenyl)thio)-2-hydroxy-2-methylpropanamide] | 10 to 100 nM | – |
| CCCc1nn(C)c2c(=O)[nH]c(-c3cc(S(=O)(=O)C[C@](C)(O)C(=O)Nc4ccc(C#N)c(C(F)(F)F)c4)ccc3OCC)nc12 [Compound 3, (R)-N-(4-cyano-3-(trifluoromethyl)phenyl)-3-((4-ethoxy-3-(1-methyl-7-oxo-3-propyl-6,7-dihydro-1H-pyrazolo[4,3-d]pyrimidin-5-yl)phenyl)sulfonyl)-2-hydroxy-2-methylpropanamide] | 10 to 100 nM | – |
| CCCc1nn(C)c2c(=O)[nH]c(-c3cc(S(=O)(=O)NC[C@@](C)(O)C(=O)Nc4ccc(C#N)c(C(F)(F)F)c4)ccc3OCC)nc12 [Compound 4, (R)-N-(4-cyano-3-(trifluoromethyl)phenyl)-3-((4-ethoxy-3-(1-methyl-7-oxo-3-propyl-6,7-dihydro-1H-pyrazolo[4,3-d]pyrimidin-5-yl)phenyl)sulfonamido)-2-hydroxy-2-methylpropanamide] | 10 to 100 nM | – |
| CCCc1nn(C)c2c(=O)[nH]c(-c3cc(S(=O)(=O)Nc4cnc(C#N)c(C(F)(F)F)c4)ccc3OCC)nc12 [Compound 5, N-(6-cyano-5-(trifluoromethyl)pyridin-3-yl)-4-ethoxy-3-(1-methyl-7-oxo-3-propyl-6,7-dihydro-1H-pyrazolo[4,3-d]pyrimidin-5-yl)benzenesulfonamide] | ≤ 10 nM | – |
| CCCc1nc(C)c2c(=O)[nH]c(-c3cc(S(=O)(=O)Nc4cnc(C#N)c(C(F)(F)F)c4)ccc3OCC)nn12 [Compound 6, N-(6-cyano-5-(trifluoromethyl)pyridin-3-yl)-4-ethoxy-3-(5-methyl-4-oxo-7-propyl-3,4-dihydroimidazo[5,1-f][1,2,4]triazin-2-yl)benzenesulfonamide] | ≤ 10 nM | – |
| CCCc1nc(C)c2c(=O)[nH]c(-c3cc(S(=O)(=O)Nc4ccc(C#N)c(C(F)(F)F)c4)ccc3OCC)nn12 [Compound 7, N-(4-cyano-3-(trifluoromethyl)phenyl)-4-ethoxy-3-(5-methyl-4-oxo-7-propyl-3,4-dihydroimidazo[5,1-f][1,2,4]triazin-2-yl)benzenesulfonamide] | ≤ 10 nM | – |
| CCCc1nn(C)c2c(=O)[nH]c(-c3cc(S(=O)(=O)Nc4ccc(C#N)c(Cl)c4)ccc3OCC)nc12 [Compound 8, N-(3-chloro-4-cyanophenyl)-4-ethoxy-3-(1-methyl-7-oxo-3-propyl-6,7-dihydro-1H-pyrazolo[4,3-d]pyrimidin-5-yl)benzenesulfonamide] | ≤ 10 nM | – |
| CCCc1nc(C)c2c(=O)[nH]c(-c3cc(S(=O)(=O)Nc4ccc(C#N)c(Cl)c4)ccc3OCC)nn12 [Compound 9, N-(3-chloro-4-cyanophenyl)-4-ethoxy-3-(5-methyl-4-oxo-7-propyl-3,4-dihydroimidazo[5,1-f][1,2,4]triazin-2-yl)benzenesulfonamide] | ≤ 10 nM | – |
| CCCc1nc(C)c2c(=O)[nH]c(-c3cc(S(=O)(=O)N[C@H]4C[C@H](C(O)C(F)(F)F)N(c5ccc(C#N)c(C(F)(F)F)c5)C4)ccc3OCC)nn12 (stereo partly drawn) [Compound 10, N-((3S,5R)-1-(4-cyano-3-(trifluoromethyl)phenyl)-5-(2,2,2-trifluoro-1-hydroxyethyl)pyrrolidin-3-yl)-4-ethoxy-3-(5-methyl-4-oxo-7-propyl-3,4-dihydroimidazo[5,1-f][1,2,4]triazin-2-yl)benzenesulfonamide] | ≤ 10 nM | – |
| CCCc1nn(C)c2c(=O)[nH]c(-c3cc(S(=O)(=O)N[C@@H](C)Cn4ccc(-c5ccc(C#N)c(Cl)c5)n4)ccc3OCC)nc12 [Compound 11, (S)-N-(1-(3-(3-chloro-4-cyanophenyl)-1H-pyrazol-1-yl)propan-2-yl)-4-ethoxy-3-(1-methyl-7-oxo-3-propyl-6,7-dihydro-1H-pyrazolo[4,3-d]pyrimidin-5-yl)benzenesulfonamide] | > 100 nM | – |
| CCCc1nn(C)c2c(=O)[nH]c(-c3cc(N4C(=S)N(c5ccc(C#N)c(C(F)(F)F)c5)C(=O)C4(C)C)ccc3OCC)nc12 [Compound 13, 4-(3-(4-ethoxy-3-(1-methyl-7-oxo-3-propyl-6,7-dihydro-1H-pyrazolo[4,3-d]pyrimidin-5-yl)phenyl)-4,4-dimethyl-5-oxo-2-thioxoimidazolidin-1-yl)-2-(Influoromethyl)benzonilrile] | > 100 nM | IC50 (androgen receptor (AR)): 500 to 1000 nM; IC50 (Human androgen receptors; receptors from human LNCaP cells, 0.5 nM [3H]Methyltrienolone, 20 hours at 4° C.): > 200 nM |
| CCCc1nc(C)c2c(=O)[nH]c(-c3cc(N4C(=S)N(c5cnc(C#N)c(C(F)(F)F)c5)C(=O)C45CCC5)ccc3OCC)nn12 [Compound 24, 5-(5-(4-ethoxy-3-(5-methyl-4-oxo-7-propyl-3,4-dihydroimidazo[5,1-f][1,2,4]triazin-2-yl)phenyl)-8-oxo-6-thioxo-5,7-diazaspiro[3.4]octan-7-yl)-3-(trifluoromethyl)picolinonitrile] | ≤ 10 nM | IC50 (Human androgen receptors): 50 to 200 nM |
| CCCc1nc(C)c2c(=O)[nH]c(-c3cc(N4CC(=O)N(c5ccc(C#N)c(C(F)(F)F)c5)C4=S)ccc3OCC)nn12 [Compound 25, 4-(3-(4-ethoxy-3-(5-methyl-4-oxo-7-propyl-3,4-dihydroimidazo[5,1-f][1,2,4]triazin-2-yl)phenyl)-5-oxo-2-thioxoimidazolidin-1-yl)-2-(trifluoromethyl)benzonitrile] | ≤ 10 nM | IC50 (androgen receptor (AR)): > 100 nM |
| CCCc1nc(C)c2c(=O)[nH]c(-c3cc(NC(=O)Nc4ccc(C#N)c(C(F)(F)F)c4)ccc3OCC)nn12 [Compound 27, 1-(4-cyano-3-(trifluoromethyl)phenyl)-3-(4-ethoxy-3-(5-methyl-4-oxo-7-propyl-3,4-dihydroimidazo[5,1-f][1,2,4]triazin-2-yl)phenyl)urea] | ≤ 10 nM | IC50 (androgen receptor (AR)): > 100 nM |
| CCCc1nc(C)c2c(=O)[nH]c(-c3cc(NC(=S)Nc4ccc(C#N)c(C(F)(F)F)c4)ccc3OCC)nn12 [Compound 28, 1-(4-cyano-3-(trifluoromethyl)phenyl)-3-(4-ethoxy-3-(5-methyl-4-oxo-7-propyl-3,4-dihydroimidazo [5,1-f][1,2,4]triazin-2-yl)phenyl)thiourea] | ≤ 10 nM | IC50 (androgen receptor (AR)): > 100 nM |
